Tests used:
[1] = target: T1, human glucagon-like peptide 1 receptor (GLP-1R) (Homo sapiens, UniProt P43220); assay: GLP-1 receptor efficacy assay (cAMP AlphaScreen, CHO cells); type: cell-based; details: EC50 [GLP-1R] / EC50 [Glucagon-R], human receptors in CHO-K1
T1 construct: expressed in transfected cells
How it was run: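 Stable CHO clones expressing the human receptor, seeded 24 h before assay. Peptides applied for 15 min at room temperature in KRBH with 0.1 mM IBMX; cells lysed and cAMP quantified by AlphaScreen. EC50 and efficacy relative to glucagon or GLP-1 from curve fitting.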

[2] = target: T2, endogenous GLP-1 receptors (Mus musculus, UniProt O35659); assay: Agonistic activity on endogenous GLP-1 receptor (cAMP, murine insulinoma cell line); type: cell-based; details: intracellular cAMP, 15 minutes at 26° C.
T2 construct: Agonistic activity of the test compounds on endogenous GLP-1 receptors; endogenous in cells
T2 sequence (O35659 22-463): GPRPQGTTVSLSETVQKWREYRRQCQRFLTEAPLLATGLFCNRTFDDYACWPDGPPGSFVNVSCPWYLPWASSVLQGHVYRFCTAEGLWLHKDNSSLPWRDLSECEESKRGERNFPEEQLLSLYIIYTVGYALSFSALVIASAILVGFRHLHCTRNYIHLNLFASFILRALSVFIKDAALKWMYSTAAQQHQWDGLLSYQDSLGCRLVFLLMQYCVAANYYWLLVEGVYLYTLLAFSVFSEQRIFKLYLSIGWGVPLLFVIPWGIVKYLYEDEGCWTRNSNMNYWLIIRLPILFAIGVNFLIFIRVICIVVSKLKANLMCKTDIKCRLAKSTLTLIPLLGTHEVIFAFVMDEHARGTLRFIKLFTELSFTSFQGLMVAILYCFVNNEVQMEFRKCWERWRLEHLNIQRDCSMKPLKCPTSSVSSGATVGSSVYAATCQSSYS
Description: Agonistic activity of the test compounds on endogenous GLP-1 receptors was determined using a murine insulinoma cell line. Intracellular cAMP was used an indicator of receptor activation.
Cells were cultured for 24 h at a density of 10,000 cells/well in a 384-well plate. Medium was removed and 10 μL KRBH buffer (NaCl 130 mM, KCl 3.6 mM, NaH2PO4 0.5 mM, MgSO4 0.5 mM, CaCl2 1.5 mM) containing test compound or GLP-1 (at increasing concentrations from 0.1 pM to 100 nM) or solvent control (0.1% (v/v) DMSO) was added to the wells for 15 minutes at a temperature of 26° C.
The cellular cAMP content is measured using the AlphaScreen cAMP Functional Assay Kit (Perkin Elmer). Measurement was performed using the Envision (PerkinElmer) according to manufacturer's recommendations.
Results were converted into cAMP concentrations using a cAMP standard curve prepared in KRBH buffer containing 0.1% (v/v) DMSO. The resulting cAMP curves were plotted as absolute cAMP concentrations (nM) over log (test compound concentration) and analyzed using the curve fitting program XLfit. […]

T1 sequence (P43220 24-463): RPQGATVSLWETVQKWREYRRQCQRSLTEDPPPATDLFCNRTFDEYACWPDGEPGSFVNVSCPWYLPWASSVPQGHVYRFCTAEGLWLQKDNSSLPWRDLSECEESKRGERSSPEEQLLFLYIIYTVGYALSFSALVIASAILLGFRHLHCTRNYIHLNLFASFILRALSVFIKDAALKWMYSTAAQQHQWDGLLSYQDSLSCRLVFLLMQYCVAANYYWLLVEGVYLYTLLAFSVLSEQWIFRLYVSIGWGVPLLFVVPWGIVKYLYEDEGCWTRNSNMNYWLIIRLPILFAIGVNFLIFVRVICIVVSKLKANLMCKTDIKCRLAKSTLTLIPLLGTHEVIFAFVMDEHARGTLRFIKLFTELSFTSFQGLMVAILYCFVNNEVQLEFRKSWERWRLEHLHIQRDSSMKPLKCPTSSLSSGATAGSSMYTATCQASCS

Row | Ratio GLP-1/Glucagon [1] | EC50 [2] [nM] | SMILES
1 | 1.81 | 0.6 | CC(C)C[C@H](NC(=O)[C@H](CC(C)C)NC(=O)[C@H](Cc1c[nH]c2ccccc12)NC(=O)[C@H](CCC(=O)O)NC(=O)[C@@H](NC(=O)[C@H](Cc1ccccc1)NC(=O)[C@H](CC(=O)O)NC(=O)[C@H](Cc1c[nH]cn1)NC(=O)[C@H](C)NC(=O)[C@H](C)NC(=O)[C@H](CCCCNC(=O)CC[C@H](NC(=O)CCCCCCCCCCCCCCC(=O)O)C(=O)O)NC(=O)[C@H](CO)NC(=O)[C@H](CC(=O)O)NC(=O)[C@H](CC(C)C)NC(=O)[C@H](Cc1ccc(O)cc1)NC(=O)[C@H](CCCCN)NC(=O)[C@H](CO)NC(=O)[C@H](Cc1ccc(O)cc1)NC(=O)[C@H](CC(=O)O)NC(=O)[C@H](CO)NC(=O)[C@@H](NC(=O)[C@H](Cc1ccccc1)NC(=O)[C@@H](NC(=O)CNC(=O)[C@H](CCC(N)=O)NC(=O)C(C)(C)NC(=O)[C@@H](N)Cc1c[nH]cn1)[C@@H](C)O)[C@@H](C)O)C(C)C)C(=O)N[C@@H](CO)C(=O)N[C@@H](C)C(N)=O [Compound 1, H-H-Aib-QGTFTSDYSKYLDS-K([15-carboxy-pentadecanoyl]-isoGlu)-AAHDFVEWLLSA-NH2]
2 | 0.38 | 0.6 | CC[C@H](C)[C@H](NC(=O)[C@H](Cc1ccccc1)NC(=O)[C@H](CC(=O)O)NC(=O)[C@H](CCCCN)NC(=O)[C@H](C)NC(=O)[C@H](C)NC(=O)[C@H](CCCCNC(=O)CC[C@H](NC(=O)CCCCCCCCCCCCCCCCC(=O)O)C(=O)O)NC(=O)[C@H](CCC(=O)O)NC(=O)[C@H](CC(=O)O)NC(=O)[C@H](CC(C)C)NC(=O)[C@H](Cc1ccc(O)cc1)NC(=O)[C@H](CCCCN)NC(=O)[C@H](CO)NC(=O)[C@H](Cc1ccc(O)cc1)NC(=O)[C@H](CC(=O)O)NC(=O)[C@H](CO)NC(=O)[C@@H](NC(=O)[C@H](Cc1ccccc1)NC(=O)[C@@H](NC(=O)CNC(=O)[C@H](CCC(N)=O)NC(=O)C(C)(C)NC(=O)[C@@H](N)Cc1c[nH]cn1)[C@@H](C)O)[C@@H](C)O)C(=O)N[C@@H](CCC(=O)O)C(=O)N[C@@H](Cc1c[nH]c2ccccc12)C(=O)N[C@@H](CC(C)C)C(=O)N[C@@H](CCC(=O)O)C(=O)N[C@@H](CO)C(=O)N[C@@H](C)C(N)=O [Compound 10, H-H-Aib-QGTFTSDYSKYLDE-K([17-carboxy-heptadecanoyl]-isoGlu)-AAKDFIEWLESA-NH2]

— patent US12473339B2, “Acylated glucagon analogues” (Zealand Pharma A/S, priority 2013, dated 2025)
